Assay results as given in article PMC10988555, “Exploiting Co(III)-Cyclopentadienyl Complexes To Develop Anticancer Agents” (Inorganic Chemistry, 2024).

Legend:
[1] = system: A2780 cells; experiment: Cell fractioning and ICP-AES (cytosolic, mitochondrial, nuclear fractions); format: cell-based, human; conditions: A2780, 12 h, 10× IC50, 37 °C
Experimental: Internalization of the complexes in different cellular factions (cytosolic, mitochondrial, or nuclear) of A2780 cells was evaluated by using a cell fractionation kit (Abcam). Cells were seeded in a 24-well plate at a density of 2 × 10^5 cells/mL and incubated for 24 h at 37 °C with 5% (v/v) CO2. […] Cells were then incubated for 12 h at the same conditions as before. The culture media was recovered to a new tube (supernatant fraction) and cells were detached from the T-flask with 250 μL of TE (Gibco by life technologies). Then, we followed the instructions provided by the manufacturer of the cell fractionation kit (Abcam). At the end of the procedure, fresh aqua regia was added to the supernatant tube and to the cellular fractions and incubated overnight at room temperature (RT) in the hood fume. Samples were delivered to Laboratório de Análises/LAQV and the levels of cobalt were evaluated by ICP-AES.

[2] = system: Calf Thymus DNA (CT-DNA); experiment: Calf thymus DNA binding assays (UV-vis, melting profile); conditions: UV spectroscopy, 25 μM complex
Experimental: Calf Thymus DNA (CT-DNA) binding assay was performed through the UV–vis spectra from 230 to 700 nm on the spectrophotometer Evolution 300 UV–vis (Thermo Fischer Scientific, Waltham, MA, USA). It was used a filtered buffer (5 mM Tris–HCl, 50 mM NaCl, pH 7.02) for the dilution of 0–50 μM of CT-DNA and 25 μM of the complexes 2–4. Control solutions of CT-DNA, CT-DNA + DMSO, and DMSO were also prepared. All solutions were incubated for 24 h at 37 °C and then analyzed. CT-DNA concentration in […] had been determined at 260 nm in a NanoDrop2000 spectrophotometer (Thermo Scientific), using an extinction coefficient of 6600 M^–1 cm^–1. The dilution effect because of the addition of the DNA solution was corrected and the affinity constants were calculated according to eq 2: [drawing 2] 2 where [DNA] is the concentration of CT-DNA (per nucleotide phosphate), εa = Abs/[complex], εf is the extinction coefficient for the free complex, and εb is the extinction coefficient for [Co(η^5-C5H5)(PPh3)(NN)][(CF3SO3)2] when fully bound to DNA. DNA concentration (expressed as the molarity of phosphate groups) was determined with a NanoDrop 2000 spectrophotometer assuming ε260 = 6600 M^–1 cm^–1. A melting profile of 10 μM CT-DNA and 10 μM CT-DNA with 10 μM of the complexes 2–4, was also performed. Evagreen dye was added to all samples after a 1h 30 min incubation of CT-DNA with the complexes at 37 °C. Melting curves were analyzed in a Corbet RotorGene 6000 (Biorad, Spain) by a first incubation step at 37 °C for 5 min followed by a ramp from 37 to 95 °C with 90 s hold in the first step and 5 s hold in the next steps with green acquisition.

[3] = system: Fibroblasts; experiment: Cell migration (scratch) assay; format: cell-based, human; conditions: IC50 concentrations, 24 h, normalized against DMSO (100%)
Experimental: Fibroblasts were seeded in 24-well plates at a density of 4 × 10^5 cells/mL and grown in the same conditions as described previously until a confluent monolayer was obtained. […] Images of the Fibroblasts were captured right after the exposure (0 h) to the complexes and after 24 h of incubation at 37 °C and 5% (v/v) CO2 in a humidified atmosphere, using CytoSMART Lux2 Live Cell Imager (Axion biosystems, USA) and Ti–U Eclipse Inverted microscope (Nikon Instruments, Japan). Images were analyzed with the ImageJ MRO Wound Healing Tool or with the scratch assay measurement of the CytoSMART cloud portal for the Lux system.

[4] = system: HCT116 (human colorectal carcinoma) cell line; experiment: Antiproliferative activity, MTS assay, HCT116; format: cell-based; conditions: for IC50: 48 h exposure, MTS assay; for Selectivity index (SI), HCT116: IC50 fibroblasts/IC50 HCT116, values with * calculated taking fibroblast IC50 as 100 μM (minimal value)
Experimental: (§1) Human colorectal carcinoma cell line (HCT116), human breast cancer cell lines (MDA-MB-231 and MCF-7), and normal human primary dermal fibroblasts neonatal (PCS-201-010) cell line were grown in DMEM (Dulbecco’s modified Eagle’s medium) (Invitrogen Corp., Grand Island, NY, USA) supplemented with 10% (v/v) fetal bovine serum and 1% (v/v) antibiotic/antimycotic solution (Invitrogen Corp.). The human ovarian carcinoma (A2780) cell line was cultivated using RPMI (Roswell Park Memorial Institute) medium supplemented as in DMEM medium. The supplemented medium is named a complete medium. Cells were grown in an incubator with a humidified atmosphere at 5% (v/v) CO2 and 37 °C. All cell lines were purchased from ATCC (ATCC, American Type Culture Collection).
(§2) The evaluation of the cytotoxic potential of complexes 1–4 was obtained through in vitro measurements of the antiproliferative activity of these complexes. Cells were plated in 96-well plates at 7.5 × 10^4 cells/mL and incubated at 37 °C with 5% (v/v) CO2. After 24 h, the culture medium was replaced with fresh medium (100 μL) containing 0.1–50 μM of the different complexes and incubated for 48 h in tumor cell lines or containing 0.1–100 μM of the different complexes and incubated for 48 h in fibroblasts. […] The fibroblast cell line was used as a control of the cytotoxicity of the complexes for healthy cells. Cell viability was evaluated using Cell Titer 96 Aqueous Non-Radioactive Cell Proliferation Assay (Promega, Madison, WI, USA) using 3-(4,5-dimethylthiazol-2-yl)-5-(3-carboxymethoxyphenyl)-2-(4-sulfophenyl)-2H-tetrazolium inner salt (MTS), as described previously.[60] In metabolically active cells, enzymes present in the mitochondria catalyze a reaction in which NADPH/NADH is produced. These enzymes reduce the MTS reagent into a brownish product, Formazan, which can be quantified by measuring the absorbance at 490 nm. The quantity of formazan produced is directly proportional to the number of viable cells in the culture. This quantification was executed with a Biorad microplate reader Model 680 (Bio-Rad, Hercules, CA, USA). Half maximal inhibitory concentration (IC50) was calculated using GraphPad Prism 6 (GraphPadSoftware). We have calculated the ratio between the IC50 of fibroblasts and the IC50 of HCT116, A2780, MDA-MB-231, or MCF-7 cell lines for complexes 1–4 that was named herein as the Selectivity index (SI). To ensure the solubility of the complexes in all biological assays, complex solutions were freshly prepared and well solubilized before addition to the cells.

[5] = system: normal human primary dermal fibroblasts; experiment: Antiproliferative activity, MTS assay, healthy fibroblasts; format: cell-based; conditions: 48 h exposure, healthy human cells
Experimental: as §1, §2

Row | Compound | Percentage of internalization in cytosol [1] | Percentage of internalization in mitochondria [1] | Percentage of internalization in nucleus [1] | effect on lowest-energy absorption band with increasing CT-DNA [2] | cellular remission [3] [%] | IC50 [4] [µM] | Selectivity index (SI), HCT116 [4] | IC50 [5] [µM]
1 | Cc1ccnc(-c2cc(C)ccn2)c1.O=S(=O)([O-])C(F)(F)F.O=S(=O)([O-])C(F)(F)F.[Co+3].c1cc[cH-]c1.c1ccc(P(c2ccccc2)c2ccccc2)cc1 [Complex 2, [Co(η^5-C5H5)(PPh3)(Me2bipy)][(CF3SO3)2]] | 36.9% ± 10.4 | 17.6% ± 6.5 | 38.1% ± 7.4 | a small hyperchromic effect | 80.2 | 15.3 ± 0.2 | 6.5* | > 100
2 | O=S(=O)([O-])C(F)(F)F.O=S(=O)([O-])C(F)(F)F.[Co+3].c1cc[cH-]c1.c1ccc(P(c2ccccc2)c2ccccc2)cc1.c1cnc2c(c1)ccc1cccnc12 [Complex 3, [Co(η^5-C5H5)(PPh3)(phen)][(CF3SO3)2]] | 30.6% ± 2.7 | 26.0% ± 11.4 | 20.3% ± 5.8 | a hypochromic effect | 76.9 | 13.4 ± 0.1 | 7.5* | > 100
3 | Nc1cc2cccnc2c2ncccc12.O=S(=O)([O-])C(F)(F)F.O=S(=O)([O-])C(F)(F)F.[Co+3].c1cc[cH-]c1.c1ccc(P(c2ccccc2)c2ccccc2)cc1 [Complex 4, [CoCp(PPh3)(NH2phen)][(CF3SO3)2]] | 66.4% ± 14.7 | 4.5% ± 2.1 | 18.4% ± 4.9 | a hypochromic effect | 78.1 | 14.1 ± 0.2 | 7.1* | > 100
